From patent US20250270200A1, “CTPS1 INHIBITORS AND USES THEREOF” (Nimbus Clotho, Inc., priority 2022, published 2025)

What follows are compounds tested against T1, human CTPS1 (Homo sapiens, UniProt P17812) (assay: ADP-Glo assay, human CTPS1 enzyme inhibition). Settings: wild-type human CTPS1, 25 nM enzyme; ADP-Glo; read-out: ADP-Glo_WT_hCTPS1—25 nM_IC50 (IC50).
T1 sequence (P17812 1-591): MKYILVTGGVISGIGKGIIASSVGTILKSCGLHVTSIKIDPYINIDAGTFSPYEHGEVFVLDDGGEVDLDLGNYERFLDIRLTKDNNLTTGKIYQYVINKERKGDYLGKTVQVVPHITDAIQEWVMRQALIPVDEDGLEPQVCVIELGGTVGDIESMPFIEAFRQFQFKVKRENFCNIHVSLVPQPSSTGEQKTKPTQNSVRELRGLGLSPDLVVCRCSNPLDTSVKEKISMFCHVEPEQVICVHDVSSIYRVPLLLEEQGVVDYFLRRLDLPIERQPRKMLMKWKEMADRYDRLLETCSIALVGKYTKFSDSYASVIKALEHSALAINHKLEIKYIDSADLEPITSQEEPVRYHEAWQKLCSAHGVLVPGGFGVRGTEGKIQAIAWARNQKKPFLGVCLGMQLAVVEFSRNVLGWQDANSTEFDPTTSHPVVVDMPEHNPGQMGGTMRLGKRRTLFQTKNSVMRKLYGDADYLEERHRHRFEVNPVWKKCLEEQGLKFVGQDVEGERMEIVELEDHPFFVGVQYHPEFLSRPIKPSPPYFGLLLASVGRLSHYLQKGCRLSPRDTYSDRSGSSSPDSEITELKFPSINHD
Assay type: biochemical
Summary of the method: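 ADP-Glo luminescence quantified ADP produced by 25 nM purified human CTPS1 (full length, FLAG-His tagged) at 25° C within the linear phase. Final substrates: ATP 120 μM, UTP 160 μM, GTP 60 μM, L-glutamine 100 μM; 1% DMSO; pH 7.4 HEPES buffer with Mg2+, KCl, DTT. Compound pre-incubated with enzyme 10 min, then with ATP/UTP 10 min.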

IC50	SMILES
> 100 nM	CCOc1ccn2ncc(-c3cnc(C(=O)NCc4cc(NS(=O)(=O)C5CC5)ccn4)s3)c2c1 [I-170, N-((4-(cyclopropanesulfonamido)pyridin-2-yl)methyl)-5-(5-ethoxypyrazolo[1,5-a]pyridin-3-yl)thiazole-2-carboxamide]
25 to 50 nM	O=C(N[C@H](CN1CCCC1)c1cc(NS(=O)(=O)C2CC2)ccn1)c1ncc(-c2cnn3ccc(Cl)cc23)s1 [I-163, (R)-5-(5-chloropyrazolo[1,5-a]pyridin-3-yl)-N-(1-(4-(cyclopropanesulfonamido)pyridin-2-yl)-2-(pyrrolidin-1-yl)ethyl)thiazole-2-carboxamide]
> 100 nM	CCOc1cncc(-c2cnc(C(=O)N[C@@H](CCN3CCCCC3)c3cccc(NS(=O)(=O)C(F)F)c3)s2)n1 [I-183, (S)-N-(1-(3-((difluoromethyl)sulfonamido)phenyl)-3-(piperidin-1-yl)propyl)-5-(6-ethoxypyrazin-2-yl)thiazole-2-carboxamide]
5 to 25 nM	C[C@H](O)[C@@H](NC(=O)c1ncc(-c2cnn3ccc(Cl)cc23)s1)c1cc(NS(=O)(=O)C2CC2)ccn1 [I-273, 5-(5-chloropyrazolo[1,5-a]pyridin-3-yl)-N-((1S,2S)-1-(4-(cyclopropanesulfonamido)pyridin-2-yl)-2-hydroxypropyl)thiazole-2-carboxamide]
5 to 25 nM	CCOc1cncc(-c2cnc(C(=O)N[C@H](CO)c3cc(NS(=O)(=O)C4CC4)ccn3)s2)n1 [I-263, (S)-N-(1-(4-(cyclopropanesulfonamido)pyridin-2-yl)-2-hydroxyethyl)-5-(6-ethoxypyrazin-2-yl)thiazole-2-carboxamide]
5 to 25 nM	CCOc1cncc(-c2cnc(C(=O)N[C@H](CN3CCN(C)C(=O)C3)c3cc(NS(=O)(=O)C4CC4)ccn3)s2)n1 [I-148, (R)-N-(1-(4-(cyclopropanesulfonamido)pyridin-2-yl)-2-(4-methyl-3-oxopiperazin-1-yl)ethyl)-5-(6-ethoxypyrazin-2-yl)thiazole-2-carboxamide]
5 to 25 nM	CCOc1cncc(-c2cnc(C(=O)N[C@H](c3cc(NS(=O)(=O)C4CC4)ccn3)C3CCOCC3)s2)n1 [I-20, (S)—N-((4-(cyclopropanesulfonamido)pyridin-2-yl)(tetrahydro-2H-pyran-4-yl)methyl)-5-(6-ethoxypyrazin-2-yl)thiazole-2-carboxamide]
5 to 25 nM	CCOc1cncc(-c2cnc(C(=O)N[C@H](c3cc(NS(=O)(=O)C4CC4)ccn3)[C@H]3CCN(C4CC4)C3)s2)n1 [I-112, N-((S)-(4-(cyclopropanesulfonamido)pyridin-2-yl)((S)-1-cyclopropylpyrrolidin-3-yl)methyl)-5-(6-ethoxypyrazin-2-yl)thiazole-2-carboxamide]
25 to 50 nM	CCOc1cncc(-c2cnc(C(=O)N[C@@H](CN(C)C)c3cccc(NS(=O)(=O)C(F)F)c3)s2)n1 [I-212, (R)-N-(1-(3-((difluoromethyl)sulfonamido)phenyl)-2-(dimethylamino)ethyl)-5-(6-ethoxypyrazin-2-yl)thiazole-2-carboxamide]
25 to 50 nM	O=C(NC(CCN1CCCCC1)c1cc(NS(=O)(=O)C2CC2)ccn1)c1ncc(-c2cnn3ccc(Cl)cc23)s1 (centres unmarked) [I-8, 5-(5-chloropyrazolo[1,5-a]pyridin-3-yl)-N-(1-(4-(cyclopropanesulfonamido)pyridin-2-yl)-3-(piperidin-1-yl)propyl)thiazole-2-carboxamide]

More lines, now with the values behind:

SMILES	IC50
CCOc1cncc(-c2cnc(C(=O)N[C@@H](c3cc(NS(=O)(=O)C4CC4)ccn3)[C@H]3COCCO3)s2)n1 [I-75, N-((S)-(4-(cyclopropanesulfonamido)pyridin-2-yl)((S)-1,4-dioxan-2-yl)methyl)-5-(6-ethoxypyrazin-2-yl)thiazole-2-carboxamide]	5 to 25 nM
CCOc1cncc(-c2cnc(C(=O)N[C@H](CN3CCCC3)c3cc(NS(=O)(=O)C4CC4)ncn3)s2)n1 [I-251, (R)-N-(1-(6-(cyclopropanesulfonamido)pyrimidin-4-yl)-2-(pyrrolidin-1-yl)ethyl)-5-(6-ethoxypyrazin-2-yl)thiazole-2-carboxamide]	25 to 50 nM
O=C(N[C@@H](CN1CCCC1)c1cccc(NS(=O)(=O)C(F)F)c1)c1ncc(-c2cnn3ccc(Cl)cc23)s1 [I-221, (R)-5-(5-chloropyrazolo[1,5-a]pyridin-3-yl)-N-(1-(3-((difluoromethyl)sulfonamido)phenyl)-2-(pyrrolidin-1-yl)ethyl)thiazole-2-carboxamide]	25 to 50 nM
C[C@H](O)[C@H](NC(=O)c1ncc(-c2cnn3ccc(Cl)cc23)s1)c1cc(NS(=O)(=O)C2CC2)ccn1 [I-272, 5-(5-chloropyrazolo[1,5-a]pyridin-3-yl)-N-((1R,2S)-1-(4-(cyclopropanesulfonamido)pyridin-2-yl)-2-hydroxypropyl)thiazole-2-carboxamide]	5 to 25 nM
CCOc1cncc(-c2cnc(C(=O)N[C@H](c3cc(NS(=O)(=O)C4CC4)ccn3)[C@H]3COCCO3)s2)n1 [I-73, N-((R)-(4-(cyclopropanesulfonamido)pyridin-2-yl)((S)-1,4-dioxan-2-yl)methyl)-5-(6-ethoxypyrazin-2-yl)thiazole-2-carboxamide]	5 to 25 nM
CCOc1cncc(-c2cnc(C(=O)N[C@@H](CN3C[C@H]4C[C@@H](C3)C4)c3cc(NS(=O)(=O)C4CC4)ccn3)s2)n1 [I-151, N-((S)-2-((1R,5R)-3-azabicyclo[3.1.1]heptan-3-yl)-1-(4-(cyclopropanesulfonamido)pyridin-2-yl)ethyl)-5-(6-ethoxypyrazin-2-yl)thiazole-2-carboxamide]	50 to 100 nM
O=C(N[C@H](c1cc(NS(=O)(=O)C2CC2)ccn1)[C@H]1COCCO1)c1ncc(-c2cnn3ccc(Cl)cc23)s1 [I-77, 5-(5-chloropyrazolo[1,5-a]pyridin-3-yl)-N-((R)-(4-(cyclopropanesulfonamido)pyridin-2-yl)((S)-1,4-dioxan-2-yl)methyl)thiazole-2-carboxamide]	5 to 25 nM
CC(C)(O)[C@@H](NC(=O)c1ncc(-c2cnn3ccc(Cl)cc23)s1)c1cc(NS(=O)(=O)C2CC2)ccn1 [I-278, (S)-5-(5-chloropyrazolo[1,5-a]pyridin-3-yl)-N-(1-(4-(cyclopropanesulfonamido)pyridin-2-yl)-2-hydroxy-2-methylpropyl)thiazole-2-carboxamide]	50 to 100 nM
CCOc1cncc(-c2cnc(C(=O)N[C@H](CN3C[C@@H]4CC[C@H]3CO4)c3cc(NS(=O)(=O)C4CC4)ccn3)s2)n1 [I-136, N-((R)-2-((1S,4S)-2-oxa-5-azabicyclo[2.2.2]octan-5-yl)-1-(4-(cyclopropanesulfonamido)pyridin-2-yl)ethyl)-5-(6-ethoxypyrazin-2-yl)thiazole-2-carboxamide]	5 to 25 nM
C[C@@H](O)[C@H](NC(=O)c1ncc(-c2cnn3ccc(Cl)cc23)s1)c1cc(NS(=O)(=O)C2CC2)ccn1 [I-271, 5-(5-chloropyrazolo[1,5-a]pyridin-3-yl)-N-((1R,2R)-1-(4-(cyclopropanesulfonamido)pyridin-2-yl)-2-hydroxypropyl)thiazole-2-carboxamide]	5 to 25 nM
CCOc1cncc(-c2cnc(C(=O)N[C@@H](c3cc(NS(=O)(=O)C4CC4)ncn3)C3CCOCC3)s2)n1 (single isomer, unassigned) [I-255]	5 to 25 nM
CC(C)(O)[C@H](NC(=O)c1ncc(-c2cnn3ccc(Cl)cc23)s1)c1cc(NS(=O)(=O)C2CC2)ccn1 [I-277, (R)-5-(5-chloropyrazolo[1,5-a]pyridin-3-yl)-N-(1-(4-(cyclopropanesulfonamido)pyridin-2-yl)-2-hydroxy-2-methylpropyl)thiazole-2-carboxamide]	50 to 100 nM
CCOc1cncc(-c2cnc(C(=O)N[C@H](c3cc(NS(=O)(=O)C4CC4)ccn3)[C@@H]3CCN(C4CCCC4)C3)s2)n1 [I-94, N-((S)-((R)-1-cyclopentylpyrrolidin-3-yl)(4-(cyclopropanesulfonamido)pyridin-2-yl)methyl)-5-(6-ethoxypyrazin-2-yl)thiazole-2-carboxamide]	> 100 nM
CCOc1cncc(-c2cnc(C(=O)N[C@H](c3cc(NS(=O)(=O)C4CC4)ccn3)[C@@H]3CCCN3C)s2)n1 [I-115, N-((S)-(4-(cyclopropanesulfonamido)pyridin-2-yl)((S)-1-methylpyrrolidin-2-yl)methyl)-5-(6-ethoxypyrazin-2-yl)thiazole-2-carboxamide]	50 to 100 nM
CCOc1cncc(-c2cnc(C(=O)N(C)[C@@H](c3cc(NS(=O)(=O)C4CC4)ccn3)[C@H]3CCOC3)s2)n1 [I-65, N-((R)-(4-(cyclopropanesulfonamido)pyridin-2-yl)((R)-tetrahydrofuran-3-yl)methyl)-5-(6-ethoxypyrazin-2-yl)-N-methylthiazole-2-carboxamide]	> 100 nM
O=C(NCc1cc(NS(=O)(=O)C2CC2)ccn1)c1ccc(-c2cnn3ccc(Cl)cc23)cc1F [I-181, 4-(5-chloropyrazolo[1,5-a]pyridin-3-yl)-N-((4-(cyclopropanesulfonamido)pyridin-2-yl)methyl)-2-fluorobenzamide]	25 to 50 nM
